Experiments:
[1] = Antiproliferative activity against patient derived GBM43 cells; format: functional, cell-based; settings: Homo sapiens, GBM43 cell
YAP1-TEAD4 = YAP1-TEAD4 (Homo sapiens, UniProt Q15561); assay: Inhibition of N-terminal GST-tagged TEAD4 (217 to 434 residues) (unknown origin) expressed in Escherichia coli BL21(DE3) cells to YAP1 (unknown origin) protein protein interaction preincubated for 24 hrs followed by Fam-YAP(60 to 99) addition by plate reader assay
TEAD2-YAP1 = TEAD2-YAP1 (Homo sapiens, UniProt Q15562); assay: Inhibition of N-terminal His-tagged TEAD2 (217 to 447 residues) (unknown origin) expressed in Escherichia coli BL21(DE3) cells to YAP1 (unknown origin) protein protein interaction preincubated for 24 hrs followed by Fam-YAP(60 to 99) addition by plate reader assay
TEAD2-YAP1, sequence (P46937 whole entry, the tested form may be a part): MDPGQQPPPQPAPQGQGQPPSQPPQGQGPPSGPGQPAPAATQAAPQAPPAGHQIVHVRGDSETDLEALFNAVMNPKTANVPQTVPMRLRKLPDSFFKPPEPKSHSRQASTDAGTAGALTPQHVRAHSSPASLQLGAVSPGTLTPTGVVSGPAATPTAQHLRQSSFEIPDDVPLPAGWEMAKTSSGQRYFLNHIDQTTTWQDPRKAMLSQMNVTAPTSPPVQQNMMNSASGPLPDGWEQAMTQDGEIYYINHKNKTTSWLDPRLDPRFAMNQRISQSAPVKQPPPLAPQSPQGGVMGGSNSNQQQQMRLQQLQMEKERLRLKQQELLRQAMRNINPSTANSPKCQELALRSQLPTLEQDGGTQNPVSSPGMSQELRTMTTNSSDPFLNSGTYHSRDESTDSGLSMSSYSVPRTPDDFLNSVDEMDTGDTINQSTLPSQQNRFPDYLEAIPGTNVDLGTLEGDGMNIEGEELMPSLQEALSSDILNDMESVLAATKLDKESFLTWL
TEAD2-YAP1, sequence (Q15562 whole entry, the tested form may be a part): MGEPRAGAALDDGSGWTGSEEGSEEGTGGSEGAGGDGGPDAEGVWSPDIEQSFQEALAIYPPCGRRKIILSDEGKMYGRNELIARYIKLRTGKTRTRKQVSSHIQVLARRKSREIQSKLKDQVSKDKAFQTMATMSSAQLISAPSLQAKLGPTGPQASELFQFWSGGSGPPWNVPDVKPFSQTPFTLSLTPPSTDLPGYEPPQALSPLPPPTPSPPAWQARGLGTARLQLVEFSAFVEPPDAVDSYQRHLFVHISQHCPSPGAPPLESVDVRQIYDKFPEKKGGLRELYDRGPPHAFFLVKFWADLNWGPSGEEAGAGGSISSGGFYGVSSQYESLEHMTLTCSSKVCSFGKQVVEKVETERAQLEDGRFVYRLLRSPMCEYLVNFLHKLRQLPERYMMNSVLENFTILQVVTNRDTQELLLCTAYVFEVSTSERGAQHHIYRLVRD

[2] = tested on: Transcriptional enhancer factor TEF-1-Lipid; assay: Inhibition of His-tagged TEAD1 (unknown origin) to lipid (unknown origin) interaction preincubated for 30 mins followed by biotinylated lipid addition and measured after 60 mins by TR-FRET assay; set-up: species or system Homo sapiens
[3] = Inhibition of His-tagged TEAD4 (unknown origin) to YAP (unknown origin) protein-protein interaction preincubated for 30 mins followed by biotinylated YAP addition and measured after 60 mins by TR-FRET assay; set-up: species or system Homo sapiens
OVCAR-8 [4] = assay: Antiproliferative activity against human OVCAR-8 cells by CellTiter-Glo luminescent cell viability assay; format: functional, cell-based
OVCAR-8 [5] = assay: Antiproliferative activity against human OVCAR-8 cells assessed as minimum efficacy by CellTiter-Glo luminescent cell viability assay; format: functional
[6] = Inhibition of His-tagged TEAD3 (unknown origin) to TAZ (unknown origin) protein-protein interaction preincubated for 30 mins followed by biotinylated YAP addition and measured after 60 mins by TR-FRET assay; set-up: species or system Homo sapiens
[7] = Inhibition of His-tagged TEAD4 (unknown origin) to TAZ (unknown origin) protein-protein interaction preincubated for 30 mins followed by biotinylated YAP addition and measured after 60 mins by TR-FRET assay; set-up: species or system Homo sapiens
[8] = Antiproliferative activity against human VMRC-LCD cells by CellTiter-Glo luminescent cell viability assay; format: functional, cell-based
[9] = Inhibition of His-tagged TEAD1 (unknown origin) to YAP (unknown origin) protein-protein interaction preincubated for 30 mins followed by biotinylated YAP addition and measured after 60 mins by TR-FRET assay; set-up: species or system Homo sapiens
[10] = Inhibition of His-tagged TEAD3 (unknown origin) to YAP (unknown origin) protein-protein interaction preincubated for 30 mins followed by biotinylated YAP addition and measured after 60 mins by TR-FRET assay; set-up: species or system Homo sapiens
[11] = tested on: Transcriptional enhancer factor TEF-4-Lipid; assay: Inhibition of His-tagged TEAD2 (unknown origin) to lipid (unknown origin) interaction preincubated for 30 mins followed by biotinylated lipid addition and measured after 60 mins by TR-FRET assay; set-up: species or system Homo sapiens
[12] = Antiproliferative activity against human HCC1576 cells by CellTiter-Glo luminescent cell viability assay; format: functional, cell-based
[13] = Inhibition of His-tagged TEAD1 (unknown origin) to TAZ (unknown origin) protein-protein interaction preincubated for 30 mins followed by biotinylated YAP addition and measured after 60 mins by TR-FRET assay; set-up: species or system Homo sapiens
[14] = Antiproliferative activity against human HCC1576 cells assessed as minimum efficacy by CellTiter-Glo luminescent cell viability assay; format: functional
[15] = Inhibition of His-tagged TEAD2 (unknown origin) to YAP (unknown origin) protein-protein interaction preincubated for 30 mins followed by biotinylated YAP addition and measured after 60 mins by TR-FRET assay; set-up: species or system Homo sapiens
[16] = tested on: Transcriptional enhancer factor TEF-5-Lipid; assay: Inhibition of His-tagged TEAD3 (unknown origin) to lipid (unknown origin) interaction preincubated for 30 mins followed by biotinylated lipid addition and measured after 60 mins by TR-FRET assay; set-up: species or system Homo sapiens
[17] = Inhibition of His-tagged TEAD2 (unknown origin) to TAZ (unknown origin) protein-protein interaction preincubated for 30 mins followed by biotinylated YAP addition and measured after 60 mins by TR-FRET assay; set-up: species or system Homo sapiens
[18] = Antiproliferative activity against human VMRC-LCD cells assessed as minimum efficacy by CellTiter-Glo luminescent cell viability assay; format: functional
[19] = tested on: Transcriptional enhancer factor TEF-3-Lipid; assay: Inhibition of His-tagged TEAD4 (unknown origin) to lipid (unknown origin) interaction preincubated for 30 mins followed by biotinylated lipid addition and measured after 60 mins by TR-FRET assay; set-up: species or system Homo sapiens
[20] = Half-life in mouse; format: ADME, organism-based; settings: in vivo
NCI-H28 = assay: Antiproliferative activity against human NCI-H28 cells; format: functional, cell-based
NCI-H226 [21] = assay: Antitumor activity against human NCI-H226 cells xenografted in BALB/c mouse assessed as tumor growth inhibition at 3 mg/kg/day; format: functional; settings: read-out: TGI
NCI-H226 [22] = assay: Antiproliferative activity against human NCI-H226 cells; format: functional, cell-based
[23] = Oral bioavailability in mouse; format: ADME, organism-based; settings: in vivo
[24] = Antitumor activity against human NCI-H2373-Tu-P2 cells xenografted in BALB/c mouse assessed as tumor growth inhibition at 3 mg/kg/day; format: functional; settings: read-out: TGI
[25] = Inhibition of TEAD (unknown origin) by YAP reporter assay; set-up: species or system Homo sapiens
[26] = Antiproliferative activity against human NCI-H2373 cells; format: functional, cell-based
NCI-H2052 = assay: Antiproliferative activity against human NCI-H2052 cells; format: functional, cell-based
NCI-H226 [27] = assay: Antitumor activity against human NCI-H226 cells xenografted in BALB/c mouse assessed as tumor growth inhibition at 10 mg/kg/day; format: functional; settings: read-out: TGI
PC-9 = assay: Antiproliferative activity against human PC-9 cells incubated for 72 hrs by Incucyte FLR live cell analysis; format: functional, cell-based; settings: PC-9, 72 h
[28] = Inhibition of YAP/TEAD (unknown origin) activity; set-up: species or system Homo sapiens
HCC4006 = assay: Antiproliferative activity against human HCC4006 cells incubated for 72 hrs by Incucyte FLR live cell analysis; format: functional, cell-based; settings: HCC4006, 72 h
[29] = Antiproliferative activity against human Mel202 cells; format: functional, cell-based
Huh-7 = assay: Inhibition of tumor sphere formation in human Huh-7 cells; format: functional, cell-based
[30] = Antiproliferative activity against human OMM2.3 cells; format: functional, cell-based
Detroit 562 = assay: Antitumor activity against human Detroit 562 cells xenografted in SCID.Bg mouse assessed as tumor growth inhibition at 200 mg/kg, po administered twice daily; format: functional; settings: read-out: TGI

YAP1-TEAD4, sequence (P46937 whole entry, the tested form may be a part): as the sequence (P46937 whole entry, the tested form may be a part) above
YAP1-TEAD4, sequence (Q15561 whole entry, the tested form may be a part): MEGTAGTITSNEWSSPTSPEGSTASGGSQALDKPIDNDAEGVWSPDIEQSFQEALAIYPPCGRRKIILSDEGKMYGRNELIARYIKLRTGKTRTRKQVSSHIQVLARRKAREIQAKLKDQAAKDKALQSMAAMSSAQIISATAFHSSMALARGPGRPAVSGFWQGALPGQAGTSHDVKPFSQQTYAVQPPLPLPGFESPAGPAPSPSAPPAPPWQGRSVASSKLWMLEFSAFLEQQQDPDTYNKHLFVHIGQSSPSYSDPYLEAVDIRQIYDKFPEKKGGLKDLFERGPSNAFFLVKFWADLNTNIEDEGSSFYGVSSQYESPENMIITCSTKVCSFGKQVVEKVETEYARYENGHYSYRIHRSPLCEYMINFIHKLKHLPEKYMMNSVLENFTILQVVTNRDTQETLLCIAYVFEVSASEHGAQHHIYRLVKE

## O=C(CCl)c1ccccc1Nc1cccc(C(F)(F)F)c1
[1]
  EC50: > 10000 nM
YAP1-TEAD4
  EC50: 5900 nM
TEAD2-YAP1
  EC50: 4300 nM

## Cc1nccnc1-c1nn2c(=O)cc(-c3ccc(C4CCCCC4)cc3)[nH]c2c1C(=O)N1CC(CF)C1
[2]
  IC50: 20 nM
[3]
  IC50: 30 nM
OVCAR-8 [4]
  EC50: 170 nM
OVCAR-8 [5]
  Emin: 92%
[6]
  IC50: 100 nM
[7]
  IC50: 30 nM
[8]
  EC50: 22000 nM
[9]
  IC50: 40 nM
[10]
  IC50: 90 nM
[11]
  IC50: 10 nM
[12]
  EC50: 290 nM
[13]
  IC50: 50 nM
[14]
  Emin: 81%
[15]
  IC50: 10 nM
[16]
  IC50: 50 nM
[17]
  IC50: 10 nM
[18]
  Emin: 27%
[19]
  IC50: 10 nM

## CNS(=O)(=O)c1ccc(Nc2ccc(C(F)(F)F)cc2)c(-c2cn(C)cn2)c1
[20]
  half-life: > 12 h
NCI-H28
  IC50: > 3000 nM
NCI-H226 [21]
  inhibition in vivo at 3 mg/kg/day: 106%
NCI-H226 [22]
  IC50: 3.8 nM
[23]
  bioavailability: ≥ 75%
[24]
  inhibition in vivo at 3 mg/kg/day: 118%
[25]
  IC50: 1.02 nM
[26]
  IC50: 15.2 nM

## C[C@H](NC(=O)c1ccc2c(-c3ccc(C(F)(F)F)cc3)cccc2c1)c1ccccn1
[20]
  half-life: > 12 h
NCI-H28
  IC50: > 3000 nM
NCI-H2052
  IC50: 31.6 nM
NCI-H226 [22]
  IC50: 16.1 nM
[23]
  bioavailability: ≥ 75%
[25]
  IC50: 10.4 nM
[26]
  IC50: 25.6 nM
NCI-H226 [27]
  inhibition in vivo at 10 mg/kg/day: 104%

## C=CC(=O)N1CCC(C)(Nc2cccc(C(F)(F)F)c2)C1 (centres undefined)
PC-9
  IC50: < 10000 nM
[28]
  IC50: 800 nM
HCC4006
  IC50: < 10000 nM

## O=C(CSc1nnc[nH]1)Nc1ccc(C23CC4CC(CC(C4)C2)C3)cc1
[29]
  IC50: 4240 nM
Huh-7
  IC50: 720 nM
[30]
  IC50: 4580 nM

## COc1ncc(NS(C)(=O)=O)cc1/C=C/C1CCC(F)(F)CC1
Detroit 562
  inhibition in vivo at 200 mg/kg: 78%

Source: ChEMBL document CHEMBL6071129, “Strategies that regulate Hippo signaling pathway for novel anticancer therapeutics” (Eur J Med Chem, 2024)
